In brackets after ≈: the same amount, converted by molar mass.
How the values were obtained:
Chlamydia pneumoniae [1] = test: Antimicrobial activity against Chlamydophila pneumoniae infected in human Hep2 cells after 72 hrs by twofold serial dilution method; format: functional, HEp-2
Chlamydia trachomatis [2] = test: Antimicrobial activity against Chlamydia trachomatis after 72 hrs by twofold serial dilution method; format: functional
Chlamydia pneumoniae [3] = test: Antimicrobial activity against Chlamydophila pneumoniae infected in human Hep2 cells after 72 hrs by fluorescence assay; format: functional, HEp-2
Chlamydia trachomatis [4] = test: Antimicrobial activity against Chlamydia trachomatis after 72 hrs by fluorescence assay; format: functional
Mycoplasma genitalium = test: Antimicrobial activity against Mycoplasma genitalium by microtiter plate reader assay; format: functional; settings: Mycoplasmoides genitalium
[5] = tested on: Mycoplasmoides pneumoniae; test: Antimicrobial activity against Mycoplasma pneumoniae by microtiter plate reader assay; format: functional
Metamycoplasma hominis = test: Antimicrobial activity against Mycoplasma hominis by microtiter plate reader assay; format: functional
Ureaplasma urealyticum = test: Antimicrobial activity against Ureaplasma urealyticum by microtiter plate reader assay; format: functional
Neisseria gonorrhoeae = test: Antimicrobial activity against Neisseria gonorrhoeae by microtiter plate reader assay; format: functional

Structure (SMILES)	MIC50 (Chlamydia pneumoniae [1]) [ng/mL]	MIC90 (Chlamydia pneumoniae [1]) [ng/mL]	MIC50 (Chlamydia trachomatis [2]) [ng/mL]	MIC90 (Chlamydia trachomatis [2]) [ng/mL]	MBC90 (Chlamydia pneumoniae [3]) [ng/mL]	MBC90 (Chlamydia trachomatis [4]) [ng/mL]	MIC (Mycoplasma genitalium) [ng/mL]	MIC [5] [ng/mL]	MIC (Metamycoplasma hominis) [ng/mL]	MIC (Ureaplasma urealyticum) [ng/mL]	MIC (Neisseria gonorrhoeae) [ng/mL]
CC[C@H]1OC(=O)[C@H](C)[C@@H](O[C@H]2C[C@@](C)(OC)[C@@H](O)[C@H](C)O2)[C@H](C)[C@@H](O[C@@H]2O[C@H](C)C[C@H](N(C)C)[C@H]2O)[C@](C)(O)C[C@@H](C)CN(C)[C@H](C)[C@@H](O)[C@]1(C)O [AZITHROMYCIN]	125 (≈ 167 nM)	125 (≈ 167 nM)	125 (≈ 167 nM)	125 (≈ 167 nM)							
CC[C@H]1OC(=O)[C@H](C)[C@@H](O[C@H]2C[C@@](C)(OC)[C@@H](O)[C@H](C)O2)[C@H](C)[C@@H](O[C@@H]2O[C@H](C)C[C@H](N(C)C)[C@H]2O)[C@](C)(OC)C[C@@H](C)C(=O)[C@H](C)[C@@H](O)[C@]1(C)O [CLARITHROMYCIN]	60 (≈ 80.2 nM)	60 (≈ 80.2 nM)	60 (≈ 80.2 nM)	60 (≈ 80.2 nM)	60 (≈ 80.2 nM)	60 (≈ 80.2 nM)					
C[C@H]1c2cccc(O)c2C(=O)C2=C(O)[C@]3(O)C(=O)C(C(N)=O)=C(O)[C@@H](N(C)C)[C@@H]3[C@@H](O)[C@@H]21.O [DOXYCYCLINE]	60	60	60	60	60	60					
CC[C@H]1OC(=O)[C@@](C)(F)C(=O)[C@H](C)[C@@H](O[C@@H]2O[C@H](C)C[C@H](N(C)C)[C@H]2O)[C@](C)(OC)C[C@@H](C)C(=O)[C@H](C)[C@H]2N(CCCCn3cc(-c4cccc(N)c4)nn3)C(=O)O[C@]12C [SOLITHROMYCIN]	250 (≈ 296 nM)	250 (≈ 296 nM)	250 (≈ 296 nM)	250 (≈ 296 nM)	250 (≈ 296 nM)	250 (≈ 296 nM)	≤ 0.03	≤ 500	≤ 0.03	0.03 (≈ 0.0355 nM)	≤ 250
CC[C@H]1OC(=O)[C@H](C)C(=O)[C@H](C)[C@@H](O[C@@H]2O[C@H](C)C[C@H](N(C)C)[C@H]2O)[C@](C)(OC)C[C@@H](C)C(=O)[C@H](C)[C@H]2N(CCCCn3cnc(-c4cccnc4)c3)C(=O)O[C@]12C [TELITHROMYCIN]	60 (≈ 73.9 nM)	60 (≈ 73.9 nM)	60 (≈ 73.9 nM)	60 (≈ 73.9 nM)	60 (≈ 73.9 nM)	60 (≈ 73.9 nM)					

Reference: ChEMBL document CHEMBL1240387, “In vitro activity of CEM-101, a new fluoroketolide antibiotic, against Chlamydia trachomatis and Chlamydia (Chlamydophila) pneumoniae” (2010)
